Measurements taken from article PMC8576102, “Structure–Activity Relationship of Novel Second-Generation Synthetic Cathinones: Mechanism of Action, Locomotion, Reward, and Immediate-Early Genes” (Frontiers in Pharmacology, 2021).

Tests used:
[1] = target: T1, hDAT (Homo sapiens, UniProt Q01959); test: Uptake inhibition assay, [3H]MPP+ uptake in transfected HEK293 cells; type: cell-based; conditions: for hDAT/hSERT ratio: 1/DAT IC50: 1/SERT IC50
T1 construct: YFP (yellow-fluorescent protein); expressed in transfected cells
T1 sequence (Q01959 whole entry): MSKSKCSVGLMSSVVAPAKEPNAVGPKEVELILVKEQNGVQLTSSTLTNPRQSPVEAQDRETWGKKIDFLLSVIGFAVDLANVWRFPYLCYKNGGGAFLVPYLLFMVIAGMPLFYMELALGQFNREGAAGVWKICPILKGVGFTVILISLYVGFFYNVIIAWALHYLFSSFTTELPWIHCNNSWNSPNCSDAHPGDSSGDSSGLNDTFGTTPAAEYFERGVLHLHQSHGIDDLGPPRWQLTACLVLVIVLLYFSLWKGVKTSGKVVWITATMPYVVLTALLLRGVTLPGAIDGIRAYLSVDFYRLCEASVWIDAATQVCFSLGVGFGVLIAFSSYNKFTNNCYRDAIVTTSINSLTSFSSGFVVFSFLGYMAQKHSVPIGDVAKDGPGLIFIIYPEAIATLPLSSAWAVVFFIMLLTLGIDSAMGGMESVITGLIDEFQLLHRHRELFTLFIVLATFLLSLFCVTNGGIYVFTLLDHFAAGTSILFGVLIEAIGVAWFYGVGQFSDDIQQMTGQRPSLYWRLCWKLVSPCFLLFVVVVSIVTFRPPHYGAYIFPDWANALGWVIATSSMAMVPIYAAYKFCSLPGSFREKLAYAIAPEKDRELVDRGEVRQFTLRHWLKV
Protocol: (§1) Human embryonic kidney (HEK293) cells stably expressing the yellow-fluorescent protein (YFP)-tagged version of the human isoforms of SERT (abbreviated as SERT) and DAT (abbreviated as DAT) were used for the uptake inhibition and release assays. The generation and maintenance of stable, monoclonal cell lines expressing these transporters was conducted as described by ([Mayer F. P. et al., 2016]; [Mayer et al., 2016 FP.]). HEK293 cells were maintained in DMEM supplemented with heat-inactivated 10% FBS, 100 µg/100 ml streptomycin, 100 U/ml penicillin, and Geneticin (G418; 50 μg/ml) and cultured in a humidified atmosphere (5% CO2, 37°C). The cells were seeded at a density of 0.36 million cells/well onto 96-well plates previously coated (24 h) with poly-D-lysine (PDL).
(§2) The medium was removed and immediately replaced with 200 µL/well of Krebs-HEPES buffer (KHB; 10 mM HEPES, 120 mM NaCl, 3 mM KCl, 2 mM CaCl2·2H2O, 2 mM MgCl2·6H2O, 20 mM D-glucose; pH 7.3). The cells were pre-incubated with different concentrations of the drug in KHB at a final volume of 50 µL/well for 5 min (DAT, SERT). Immediately after, the pre-incubation solution was removed and the cells were incubated with the tritiated substrates, 0.02 µM [^3H]MPP^+ for the DAT (3 min) and 0.1 µM [^3H]5-HT for the SERT (1 min), along with different concentrations of the drug in KHB. Finally, the [^3H]substrate was removed and the cells were washed with ice-cold KHB followed by the addition of sodium dodecyl sulfate (SDS) 1%. The lysate was then added to the scintillation fluid, and the radioactivity was quantified with a beta-scintillation counter (Perkin Elmer, Waltham, MA, United States).
(§3) The uptake in the absence of the drug compound was normalized to 100%, being the percentage of the uptake in the presence of different concentrations of the drug expressed as a percentage thereof. 3–4 independent experiments were performed in duplicate.
(§4) Data were expressed as mean ± SEM. Competition curves were plotted and fitted by non-linear regression, and data were best fitted to a sigmoidal dose-response curve to obtain an IC50 value. 1/DAT IC50: 1/SERT IC50 was used to calculate transporter ratios. Data from batch release assays were statistically analyzed with a mixed-effects model, employing Šidák’s correction for multiple comparisons. One-way/two-way ANOVA or two-way ANOVA of repeated measures, followed by Tukey’s or Dunnett’s post hoc test, was also used when appropriate. The α error probability was set at 0.05 (p < 0.05). The size group for each experiment and statistical results are shown in the corresponding legend of figures. Statistical calculations were performed using GraphPad Prism (GraphPad Software, San Diego, CA, United States).

[2] = target: T2, hSERT (Homo sapiens, UniProt P31645); test: Uptake inhibition assay, [3H]5-HT uptake in transfected HEK293 cells; type: cell-based
T2 construct: YFP (yellow-fluorescent protein); expressed in transfected cells
T2 sequence (P31645 whole entry): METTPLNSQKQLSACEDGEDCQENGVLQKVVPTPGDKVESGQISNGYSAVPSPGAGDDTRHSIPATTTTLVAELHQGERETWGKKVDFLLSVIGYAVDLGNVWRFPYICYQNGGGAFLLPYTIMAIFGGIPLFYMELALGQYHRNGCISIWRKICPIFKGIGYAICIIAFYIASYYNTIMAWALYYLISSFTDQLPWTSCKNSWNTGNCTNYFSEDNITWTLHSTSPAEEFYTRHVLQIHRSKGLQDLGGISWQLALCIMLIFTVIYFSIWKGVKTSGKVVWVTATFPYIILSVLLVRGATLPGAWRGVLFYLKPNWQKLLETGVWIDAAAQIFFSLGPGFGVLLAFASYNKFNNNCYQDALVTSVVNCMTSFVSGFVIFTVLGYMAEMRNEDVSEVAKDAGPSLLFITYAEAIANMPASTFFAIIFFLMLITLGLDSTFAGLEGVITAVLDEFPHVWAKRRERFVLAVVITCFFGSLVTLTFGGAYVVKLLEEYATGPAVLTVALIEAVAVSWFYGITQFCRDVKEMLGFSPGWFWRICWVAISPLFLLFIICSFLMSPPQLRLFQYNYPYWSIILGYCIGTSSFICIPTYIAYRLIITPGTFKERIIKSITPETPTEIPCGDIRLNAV
Protocol: as §1, §2, §3, §4

[3] = tested on: T3, SERT; test: Batch release assay, [3H]5-HT release from SERT-expressing HEK293 cells; type: cell-based, human; conditions: for [3H]5-HT release at the SERT (in words): compound close to its IC50, KHB vs KHB + monensin 10 µM
T3 construct: YFP (yellow-fluorescent protein); expressed in transfected cells
Protocol: as §1
HEK293 cells expressing the transporter of interest were preloaded with the tritiated substrate 0.08 μM [^3H]5-HT (SERT) or 0.1 μM [^3H]MPP^+ (DAT) in KHB (50 μL/well) for 20 min (5% CO2, 37°C). Subsequently, the cells were washed three times using KHB (200 μL/well) at room temperature. Afterward, a pre-incubation step of 10 min in KHB or in KHB + monensin (Mon) 10 μM was done. […] To determine the specificity of drug-induced reverse transport, selective transporter inhibitors 0.05 μM paroxetine (SERT) and 0.5 μM of GBR12909 (DAT) and effective releasers 10 μM p-chloroamphetamine (PCA; SERT) and 10 μM d-amphetamine (DAT) were used (Supplementary Figure S1). The resulting supernatant was collected and transferred to a new well every 2 min (four times for KHB/Mon and five times for each tested compound). Three independent experiments were performed in duplicate. Liquid scintillation cocktail was added to the wells with remaining cells (200 μL) and with the transferred supernatant (100 μL) and to the wells used for total uptake and activity measurements (200 μL). Total radioactivity present in the supernatant and in the remaining cells was set as 100%, and the amount of [^3H] substrate present in the supernatant was expressed as percentage of the total.
as §4

[4] = tested on: Swiss CD-1 mice; test: Horizontal locomotor activity (HLA); type: in vivo; conditions: for HLA after 30 mg/kg compared to the medium dose (10 mg/kg): 30 mg/kg vs 10 mg/kg i.p.; for HLA vs saline at the lowest dose: 3 mg/kg i.p., 60 min; for Persistence of the increase in locomotor activity: 10 mg/kg i.p.
[5] = tested on: Arc mRNA; test: Arc mRNA expression (qPCR) in ventral and dorsal striatum; type: in vivo, mice; conditions: 10 mg/kg i.p., 120 min after administration, vs saline
Protocol: (§5) Mice were injected with an acute dose of 10 mg/kg i.p. of the corresponding synthetic cathinone or saline solution. The dose was chosen according to the behavioral results obtained since it caused significant response in both CPP and HLA tests in all compounds tested. 30 min or 2 h post-administration, mice were sacrificed by cervical dislocation and the VS, DS, and mPFC were dissected out ([Paxinos and Franklin, 2004]) using a mouse brain acrylic matrix (Agnthos, Sweden) and stored at -80°C until use. Total RNA was isolated following a standard TRIsure reagent–chloroform extraction protocol ([Duart-Castells et al., 2019]).
(§6) Reverse transcription polymerase chain reaction (RT-PCR) was carried out to obtain complementary DNA (cDNA) by using the High Capacity cDNA Reverse Transcription Kit (Applied Biosystems) and the Veriti thermal cycler (Applied Biosystems, Foster, CA, United States). Synthesis of cDNA was obtained by mixing 1,000 ng of total RNA with the corresponding volumes of each kit reagent to a final volume of 20 μL. Quantitative real-time polymerase chain reaction (qPCR) was performed by using the StepOnePlus^TM Real-Time PCR System and TaqMan PCR Master Mix (Applied Biosystems, Foster, CA, United States). 25 ng of cDNA was loaded in a final volume of 20 μL containing sequence-specific primers and TaqMan probes (Mm01204954_g1 for Arc, Mm04230607_s1 for bdnf, Mm00487425_m1 for c-fos, and Mm00607939_s1 for β-actin). Each sample was tested in duplicate. qPCR conditions were 2 min at 50°C, 10 min at 95°C, 40 cycles/15 s at 95°C, and 60 s at 60°C. Changes in gene expression were defined by using the comparative Ct method for each experimental sample. Gene expression was normalized by using the mean of Ct values of the housekeeping gene β-actin.

[6] = tested on: c-fos mRNA; test: c-fos mRNA expression (qPCR) in ventral and dorsal striatum; type: in vivo, mice; conditions: 10 mg/kg i.p., vs saline; for c-fos expression in the DS, 120 min: 120 min post injection; for c-fos expression in the VS, 120 min: 120 min after administration
Protocol: as §5, §6

[7] = tested on: Arc mRNA; set-up: method as in Giannotti et al., 2017; conditions: 30 min and 2 h after administration; ref Giannotti et al., 2017; cited from earlier work
[8] = tested on: Swiss CD-1 mice; test: Conditioned place preference (CPP); type: in vivo; conditions: 30 mg/kg i.p.
Protocol: For the behavioral and gene expression experiments, male Swiss CD-1 mice (Janvier, Le Genest, France) weighing 30–35 g (6–8 weeks old) were used. With the aim of reducing the number of animals and minimize their suffering, animal procedures were performed in accordance with the ARRIVE guidelines. All animal care and experimental protocols in this study were in accordance with the guidelines of the European Community Council (2010/63/EU), as amended by Regulation (EU) 2019/1010, and approved by the Animal Ethics Committee of the University of Barcelona under the supervision of the Autonomous Government of Catalonia. The animals were housed in temperature-controlled conditions (22 ± 1°C) under a 12 h light/dark cycle and had free access to food and drinking water. During the study, the animals were supervised immediately after injection and during the behavioral procedure as well as 24 h after injection, and different parameters were visually evaluated for humane endpoints, such as self-mutilations, strange vocalizations, abnormal posture, or a greater weight loss than 20%. The sample size was determined using GPower software. […]
The rewarding effects were determined using a place conditioning paradigm as described by [Duart-Castells et al. (2019]). […] The time spent in each compartment was recorded (Smart 3.0, Panlab, Spain). […]

[9] = tested on: bdnf mRNA; test: bdnf mRNA expression (qPCR) in medial prefrontal cortex; type: in vivo, mice; conditions: 10 mg/kg i.p., 120 min after administration, vs saline
Protocol: as §5
Reverse transcription polymerase chain reaction (RT-PCR) was carried out to obtain complementary DNA (cDNA) by using the High Capacity cDNA Reverse Transcription Kit (Applied Biosystems) and the Veriti thermal cycler (Applied Biosystems, Foster, CA, United States). Synthesis of cDNA was obtained by mixing 1,000 ng of total RNA with the corresponding volumes of each kit reagent to a final volume of 20 μL. Quantitative real-time polymerase chain reaction (qPCR) was performed by using the StepOnePlus^TM Real-Time PCR System and TaqMan PCR Master Mix (Applied Biosystems, Foster, CA, United States). […]

SMILES | IC50 [1] [nM] | hDAT/hSERT ratio [1] | IC50 [2] [µM] | [3H]5-HT release at the SERT (in words) [3] | HLA after 30 mg/kg compared to the medium dose (10 mg/kg) [4] | Arc gene expression in the DS, 120 min [5] | Arc gene expression in the VS, 120 min [5] | c-fos expression in the DS, 30 min ([6]; 30 min after injection) | c-fos expression in the DS, 120 min [6] | Distance traveled ([4]; 10 mg/kg, independent experiment, N = 15) | Arc mRNA levels in the striatum after acute injection [7] | HLA vs saline at the lowest dose [4] | Persistence of the increase in locomotor activity [4] | c-fos expression in the VS, 120 min [6] | [3H]5-HT release at SERT-expressing HEK293 cells, max. ([3]; compound close to its IC50 (NEP 6 µM)) | CPP rewarding effects vs saline at the highest dose [8] | c-fos expression in the VS, 30 min ([6]; 30 min after injection) | bdnf mRNA levels in the mPFC, 120 min [9]
CCCC(NC)C(=O)c1ccc(C)cc1 (stereo not drawn) [4-MPD, 4’-methyl-α-methylaminovalerophenone] | 290 ± 50 | 108 | 30.9 ± 6.23 | most potent | significant increase |  |  |  |  |  |  |  |  |  |  |  |  | 
CCCC(NCC)C(=O)c1ccc(C)cc1 (stereo not drawn) [4-MeAP, 4’-methyl-α-ethylaminovalerophenone] | 140 ± 20 | 93 | 13.3 ± 0.89 | most potent | significant increase | significant increase | significant increase | significant overexpression | increased |  |  |  |  |  |  |  |  | 
COC(=O)[C@H]1[C@@H](OC(=O)c2ccccc2)C[C@@H]2CC[C@H]1N2C [Cocaine, reference compound] |  |  |  |  |  |  |  |  |  | 16,018 ± 1,118 cm |  |  |  |  |  |  |  | 
CCCC(C(=O)c1ccc2c(c1)OCO2)N1CCCC1 (stereo not shown) [MDPV, 3,4-methylenedioxypyrovalerone] |  |  |  |  |  |  |  |  |  |  | increased |  |  |  |  |  |  | 
CCCC(NCC)C(=O)c1ccccc1 (stereo not drawn) [N-Ethyl-pentedrone, α-ethylaminovalerophenone] | 100 ± 30 | >1,000 | 127 ± 5.14 | most potent | ceiling effect | significant increase | significant increase | significant overexpression | increased |  |  | increase | more than 1 hour | significant increase |  |  |  | 
CCCC(NCC)C(=O)c1ccc2c(c1)OCO2 (stereo not drawn) [N-Ethyl-pentylone, 3’,4’-methylendioxy-α-ethylaminovalerophenone] | 130 ± 10 | 51 | 6.37 ± 0.09 | smallest | significant decrease | significant increase | significant increase | increased |  |  |  | increase | more than 1 hour |  | ≈ 5 % total cpm | significant increase | significant overexpression | significant overexpression
CCCC(NC)C(=O)c1ccccc1 (stereo not drawn) [Pentedrone, α-methylaminovalerophenone] | 210 ± 20 | 666 | 138 ± 13.4 | milder release | ceiling effect |  |  |  | increased |  |  |  |  | significant increase |  |  |  | 
CCCC(NC)C(=O)c1ccc2c(c1)OCO2 (stereo not drawn) [Pentylone, 3’,4’-methylendioxy-α-methylaminovalerophenone] | 510 ± 70 | 45 | 23.2 ± 2.68 | milder release | significant increase | significant increase | significant increase |  | increased |  |  |  |  |  |  |  |  | 
CCCC(C(=O)c1ccccc1)N1CCCC1 (stereo not drawn) [α-PVP] |  |  |  |  |  |  |  |  |  |  | did not alter |  |  |  |  |  |  | 
